# According to patent US6462086B1, “Non-malignant disease treatment with Ras antagonists” (Ramot University Authority for Applied Research and …, priority 1999, dated 2002):
# Entries after “also recorded” stand apart in the source; their conditions may differ.
# Columns and labels:
# [1] = test system: lymphocytes from naive SJL mice; assay: ConA- and LPS-induced proliferation of lymphocytes from naive SJL mice in vitro (3H-thymidine); type: cell-based; settings: Mus musculus, Lymphocyte, 48 h stimulation
# [2] = test system: acute experimental autoimmune encephalomyelitis (EAE) in SJL/J mice; assay: Acute EAE in SJL/J mice, clinical signs; type: in vivo, mouse; settings: compared to controls
# Protocol: Induction of acute EAE was based on a modification of Bernard's protocol (13). Briefly, equal volumes of MSCH (10 mg/ml in PBS) and complete Freud's adjuvant (CFA) enriched with Mycobacterium tuberculosis H37Ra (6 mg/ml) (Difco Laboratories, Detroit, Mich.) were homogenized in a blender. For each mouse, 0.1 ml (0.5 mg) of the emulsion were injected s.c. into the four footpads. Immediately thereafter and 2 days later, mice were injected i.v. with Bordetella pertussis (2.7×10^9 organisms per mouse) (Rafa Laboratories, Jerusalem, Israel). Animals were examined daily for signs of disease. The first clinical signs appeared on day 10-12 post immunization and were scored according to the following six point scale: 0: no abnormality; 1: mild tail weakness (floppy tail); 2: tail paralysis; 3: tail paralysis and hind leg paresis; 4: hind leg paralysis or mild forelimb weakness; 5: quadriplegia or moribund state; 6: death.
# FTS (as powder) was diluted in chloroform (35.8 mg/ml of FTS=0.1 M) and kept in aliquods. The content (25 μl) of one aliquod was evaporated under nitrogen and then disolved in 6 μl absolute ethanol and 7 μl of 1N NaOH; 890 μl of PBS were subsequently added. Each mouse received 0.1 ml of this solution daily (0.1 mg/mouse or 5 mg/kg) intraperitoneally (i.p.).
# MRL/lpr mice = assay: Serum autoantibodies by ELISA in MRL/lpr and MRL/++ mice; type: in vivo, mouse; settings: 16 weeks of age
# Protocol: FTS was synthesized as previously described (13). FTS was stored in chloroform, which was evaporated under a stream of nitrogen immediately before use. The powder was dissolved in absolute ethanol and diluted to the desired concentration in sterile saline made basic with NaOH. 200 μl of carrier solution containing 100 μg of FTS (5 mg/kg) were injected intraperitoneally (i.p.) into each mouse. Control solution was prepared at the same time starting with a chloroform solution.
# Mice were treated once a day, 3-5 times a week starting from 6 or 10 weeks of age until 18 weeks of age.
# The mice were bled at 16 weeks of age by retro-orbital sinus puncture and the sera were separated by centrifugation and stored at −70° C. until assayed. The sera were tested by ELISA for the presence of different autoantibodies as previously described (15, 16). This included serum dependent (β2-GPI dependent) and independent antibodies to cardiolipin (aCL) and antibodies to single and double stranded DNA (anti-ssDNA, anti-dsDNA).
# Ras = Ras expression in rat liver membranes (Western blot); type: in vivo
# Protocol: The levels of Ras proteins in the rat livers were determined by immunoblotting assays using anti Ras antibodies (PanRasAb03, Santa Cruz) as detailed previously (4, 5). Briefly, the livers were homogenized (10% w/v) in 0.32M sucrose, 50 mM Tris HCl, pH 7.4 buffer containing 3mM EDTA, 1 mM EGTA, 5 μg/ml pepstatine, and 5 units/ml opsotonin. Nuclei and cell debris were removed by a 10-minute 1000×g spin. The plasma membrane-enriched fraction was obtained by a 20,000×g 30 minute spin. The resulting pellets were resuspended in homogenization buffer and samples containing 20 μg proteins were used for 12.5% SDS-PAGE (mini gels). The gels were subjected to immunoblotting assays as described previously (4). Each western blot was analyzed 3 times and the data in FIG. 17 represent the means±SD OD of these 3 blots. Ras was also determined by immunohistochemistry.
# human HSC = assay: PDGF-stimulated DNA synthesis ([3H]TdR) in human hepatic stellate cells; type: cell-based; settings: PDGF-BB 10 ng/ml; 24 h FTS
# Protocol: Human HSCs were isolated from wedge sections of normal human liver unsuitable for transplantation as previously reported (6, 7). Briefly, after a combined digestion with collagenase/pronase, HSCs were separated from other liver nonparenchymal cells by ultracentrifugation over gradients of stractan (Cellsep™ isotonic solution, Larex Inc., St. Paul, Minn.). Extensive characterization was performed as described in (7). Cells were cultured on plastic culture dishes (Falcon, Becton Dickinson, Lincoln Park, N.J.) in Iscove's modified Dulbecco's medium supplemented with 0.6 U/ml insulin, 2.0 mmol/L glutamine, 0.1 mmol/L nonessential amino acids, 1.0 mmol/L sodium pyruvate, antibiotic antifungal solution (all provided by Gibco Laboratories, Grand Island, N.Y.) and 20% fetal bovine serum (Imperial Laboratories, Andover, U.K.). Experiments described in this study were performed on cells between third and fifth serial passages (1:3 split ratio) using three independent cell lines.
# DNA synthesis was measured as the amount of [Methyl-^3H]thymidine ([^3 H]TdR) incorporated into trichloroacetic acid-precipitable material. […] At the end of the pulsing period, [^3H]TdR incorporation into cellular DNA was measured as previously reported (8). Cell number was determined in three separate wells from each dish and results were expressed as cpm/10^5 cells.
smiles,measurement,setting,value
"CC(C)=CCC/C(C)=C/CC/C(C)=C/CSc1ccccc1C(=O)O [FTS, farnesyl thiosalicylic acid]",inhibition at 12.5 µM,[1]; 12.5 μM FTS,22 to 50%
same,inhibition at 25 µM,[1]; 25 μM FTS,66 to 71%
same,inhibition at 50 µM,[1]; 50 μM FTS,95 to 98%
same,clinical course of EAE (FIG. 1),[2],significantly ameliorated
same,levels of anti-dsDNA antibodies,MRL/lpr mice,did lower the levels; also recorded: significant decrease
same,levels of anti-ssDNA antibodies,MRL/lpr mice,did not affect the levels
same,levels of non-serum dependent aCL antibodies,MRL/lpr mice,did not affect the levels
same,levels of β2-GPI dependent aCL antibodies,MRL/lpr mice,did lower the levels; also recorded: significant decrease
same,decrease in Ras expression in the livers of TAA-treated rats,Ras; FTS treatment,70%
same,"Ras levels in liver membranes, fold higher than control group","Ras; TAA+FTS treated group, TAA alone 17.6±2.0-fold",4.9±1.2 fold
same,FTS concentration affecting PDGF-stimulated 3H-thymidine incorporation into DNA,human HSC,25 to 50 µM
